Assay results published in patent US7671085B2, “Non-steroidal farnesoid X receptor modulators and methods for the use thereof” (The Salk Institute for Biological Studies, priority 2002, dated 2010).

Target: T1, FXR (Homo sapiens, UniProt Q96RI1)
T1 construct: using a full length FXR on a natural response element; expressed in transfected cells
T1 sequence (Q96RI1 1-486): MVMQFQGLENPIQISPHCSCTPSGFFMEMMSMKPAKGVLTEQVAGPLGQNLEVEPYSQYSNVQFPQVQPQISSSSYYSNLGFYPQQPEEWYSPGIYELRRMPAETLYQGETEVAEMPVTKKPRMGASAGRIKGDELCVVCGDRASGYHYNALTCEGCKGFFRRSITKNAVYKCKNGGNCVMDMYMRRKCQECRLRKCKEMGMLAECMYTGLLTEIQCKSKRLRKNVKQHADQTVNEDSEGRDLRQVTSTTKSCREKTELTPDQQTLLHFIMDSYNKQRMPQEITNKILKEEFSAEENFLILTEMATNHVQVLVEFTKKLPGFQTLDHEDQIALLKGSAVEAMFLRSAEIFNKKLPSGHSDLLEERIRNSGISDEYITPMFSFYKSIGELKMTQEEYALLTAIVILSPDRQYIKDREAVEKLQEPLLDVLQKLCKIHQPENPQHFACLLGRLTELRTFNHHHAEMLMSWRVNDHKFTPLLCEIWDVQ
Experiment: cell-based FXR transcription assay, FXR responsive promoter linked to luciferase reporter
Conditions: for EC50 / RE^a: cell-based FXR reporter assay; for EC50: determined with Prism 3.0; for RE^a: footnote a not given; for FXR activation, in words: cell-based reporter assay, SAR discussion
Source text: In addition to ensuring that only cell permeable compounds were selected for further optimization, this approach allows for the detection of FXR activation in a natural system (i.e., correct folding of the protein and in the presence of a complete compliment of co-activators and co-repressors).
The feasibility of creating high throughput screens (HTS) for ORs was explored using FXR as a candidate orphan receptor (OR) with a known activator, chenodeoxycholic acid (CDCA) as a ligand. The screen is based on the co-transfection of a full-length receptor with the reporter vector containing a natural hormone response element under a minimal eukaryotic promoter. […] Using this 384-well format, the high throughput screening (HTS) approach to FXR as a candidate OR was employed. […] A central question in the feasibility studies is whether this library is suitable for screening for nuclear receptor ligands. Samples of this library were first reformatted into a 384-well format and then subjected to the FXR cell-based assays described above and assessed for FXR-mediated transcriptional activity. Cells were exposed to approximately 10 μM of sample for 18 hrs prior to washing and luciferase analysis.
EC50 values were determined with Prism 3.0 software via the activity of the subject compound in the previously described cell based assay.

Row | EC50 | RE^a | FXR activation, in words | SMILES
1 | – | 0.33 | – | CCOc1cccc(-c2ccc(CN(C(=O)NC(C)C)c3cccc(/C=C/C(=O)OC)c3)cc2)c1 [Compound 228]
2 | – | 1.18 | – | COC(=O)/C=C/c1cccc(N(Cc2ccc(-c3ccc(OC)cc3)cc2)C(=O)NC(C)C)c1 [Compound 231]
3 | – | 1.41 | excellent activity | COC(=O)C=Cc1cccc(N(Cc2ccc(C=Cc3cccc(Cl)c3)cc2)C(=O)C2CCCCC2)c1 [Compound 180]
4 | – | 0.21 | – | COC(=O)/C=C/c1cccc(N(Cc2ccc(/C=C/c3c(F)cccc3F)cc2)C(=O)NC(C)C)c1 [Compound 191]
5 | – | 0.12 | – | COC(=O)C=Cc1cccc(N(Cc2ccc(C=CC(=O)OC(C)(C)C)cc2O)C(=O)C2CCCCC2)c1 [Compound 161]
6 | – | 0.41 | – | COC(=O)/C=C/c1cccc(N(Cc2ccc(-c3ccc(F)c(Cl)c3)cc2)C(=O)NC(C)C)c1 [Compound 249]
7 | – | 0.64 | only micromolar activity | COC(=O)C=Cc1cccc(N(Cc2ccc(C=CCOc3ccccc3)cc2)C(=O)C2CCCCC2)c1 [Compound 158]
8 | – | 1.33 | excellent activity | COC(=O)/C=C/c1cccc(N(Cc2ccc(/C=C/c3cccc(F)c3)cc2)C(=O)C(C)C)c1 [Compound 202]
9 | – | 1.64 | – | COC(=O)/C=C/c1cccc(N(Cc2ccc(-c3ccc(F)c(Cl)c3)cc2)C(=O)C(C)C)c1 [Compound 248]
10 | – | 0.10 | – | COC(=O)/C=C/c1cccc(N(Cc2ccc(-c3c(OC)cccc3OC)cc2)C(=O)NC(C)C)c1 [Compound 258]
11 | – | 0.12 | excellent activity | COC(=O)/C=C/c1cccc(N(Cc2ccc(/C=C/c3c(Cl)cccc3Cl)cc2)C(=O)C2CCCCC2)c1 [Compound 177]
12 | – | 2.06 | – | CCOCC=Cc1ccc(CN(C(=O)C2CCCCC2)c2cccc(C=CC(=O)OC)c2)cc1 [Compound 157]
13 | – | 1.70 | excellent activity | COC(=O)/C=C/c1cccc(N(Cc2ccc(-c3ccc(F)c(F)c3)cc2)C(=O)C2CCCCC2)c1 [Compound 213]
14 | < 10000 nM | 0.10 | – | COC(=O)/C=C/c1cccc(N(Cc2ccc(-c3cc(Cl)cc(Cl)c3)cc2)C(=O)NC(C)C)c1 [Compound 222]
15 | – | 0.10 | excellent activity | COC(=O)/C=C/c1cccc(N(Cc2ccc(-c3c(OC)cccc3OC)cc2)C(=O)C(C)C)c1 [Compound 257]
16 | – | 0.79 | – | COC(=O)/C=C/c1cccc(N(Cc2ccc(-c3cc(Cl)ccc3OC)cc2)C(=O)C(C)C)c1 [Compound 242]

Row | EC50 | RE^a | FXR activation, in words | SMILES
17 | – | 0.91 | – | COC(=O)/C=C/c1cccc(N(Cc2ccc(/C=C/c3ccc(F)cc3)cc2)C(=O)NC(C)C)c1 [Compound 206]
18 | – | 0.78 | – | COC(=O)/C=C/c1cccc(N(Cc2ccc(-c3ccc(OC(F)(F)F)cc3)cc2)C(=O)C(C)C)c1 [Compound 251]
19 | 1470 nM | 0.15 | – | COC(=O)C=Cc1cccc(N(Cc2ccc(C=Cc3cc(C(F)(F)F)cc(C(F)(F)F)c3)cc2)C(=O)C2CCCCC2)c1 [Compound 183]
20 | – | 0.70 | – | COC(=O)/C=C/c1cccc(N(Cc2ccc(/C=C/c3cccc(C(F)(F)F)c3)cc2)C(=O)C(C)C)c1 [Compound 187]
21 | – | 0.17 | – | COC(=O)/C=C/c1cccc(N(Cc2ccc(-c3cc(Cl)ccc3OC)cc2)C(=O)NC(C)C)c1 [Compound 243]
22 | – | 0.23 | – | COC(=O)/C=C/c1cccc(N(Cc2ccc(-c3ccc(SC)cc3)cc2)C(=O)NC(C)C)c1 [Compound 217]
23 | – | 1.51 | excellent activity | COC(=O)/C=C/c1cccc(N(Cc2ccc(-c3ccc4c(c3)OCO4)cc2)C(=O)NC(C)C)c1 [Compound 246]
24 | – | 1.02 | – | COC(=O)/C=C/c1cccc(N(Cc2ccc(-c3ccc(C(C)(C)C)cc3)cc2)C(=O)NC(C)C)c1 [Compound 264]
25 | – | 0.59 | – | COC(=O)/C=C/c1cccc(N(Cc2ccc(/C=C/c3cccc(Cl)c3)cc2)C(=O)NC(C)C)c1 [Compound 182]
26 | – | 1.38 | – | COC(=O)/C=C/c1cccc(N(Cc2ccc(-c3ccc(C(C)(C)C)cc3)cc2)C(=O)C2CCCCC2)c1 [Compound 262]
27 | – | 0.64 | – | CC(C)(C)OC(=O)/C=C/c1cccc(N(Cc2ccc(CCC(=O)OC(C)(C)C)cc2)C(=O)C2CCCCC2)c1 [Compound 160]
28 | – | 0.18 | – | COC(=O)C=Cc1cccc(N(Cc2ccc(C=CC(=O)OC(C)(C)C)cc2OS(C)(=O)=O)C(=O)C2CCCCC2)c1 [Compound 166]
29 | 661 nM | 0.54 | – | COC(=O)/C=C/c1cccc(N(Cc2ccc(-c3cc(Cl)cc(Cl)c3)cc2)C(=O)C(C)C)c1 [Compound 221]
30 | – | 0.28 | – | COC(=O)/C=C/c1cccc(N(Cc2ccc(-c3ccccc3OC)cc2)C(=O)C(C)C)c1 [Compound 219]
31 | – | 0.21 | – | COC(=O)/C=C/c1cccc(N(Cc2ccc(-c3ccc(OC(F)(F)F)cc3)cc2)C(=O)NC(C)C)c1 [Compound 252]
32 | – | 0.53 | – | COC(=O)/C=C/c1cccc(N(Cc2ccc(-c3cccc(C)c3)cc2)C(=O)NC(C)C)c1 [Compound 240]

Continued, compound first:

Row | SMILES | EC50 | RE^a | FXR activation, in words
33 | COC(=O)/C=C/c1cccc(N(Cc2ccc3c(c2OC)OC(C)(C)C=C3)C(=O)C2CCCCC2)c1 [Compound 65] | 3.58 nM | 0.40 | –
34 | COC(=O)C=Cc1cccc(N(Cc2ccc3c(c2OC)OC(C)(C)C(O)C3N2CCCCC2)C(=O)c2ccccc2)c1 (stereo not drawn) [Compound 100] | – | – | did not improve the activity
35 | COC(=O)/C=C/c1cccc(N(Cc2ccc3c(c2OC)OC(C)(C)C=C3)C(=S)C2CC2)c1 [Compound 83] | – | – | inactive
36 | COC(=O)C=Cc1cccc(N(Cc2ccc3c(c2OC)OC(C)(C)C(O)C3O)C(=O)c2ccccc2)c1 (stereo not drawn) [Compound 94] | – | – | did not improve the activity
37 | COC(=O)/C=C/c1cccc(N(Cc2ccc(-c3cc(Cl)cc(Cl)c3)cc2)C(=O)C2CCCCC2)c1 [Compound 126] | – | 0.95 | –
38 | COC(=O)C=Cc1cccc(N(Cc2ccc(C=CC(=O)OCc3ccccc3)cc2)C(=O)C2CCCCC2)c1 [Compound 153] | – | 0.23 | –
39 | COC(=O)C=Cc1ccc(CN(C(=O)C2CCCCC2)c2cccc(C=CC(=O)OC)c2)cc1 [Compound 150] | – | 0.87 | –
40 | CCOCC=Cc1cccc(N(Cc2ccc(C=CC(=O)OC(C)(C)C)cc2)C(=O)C2CCCCC2)c1 [Compound 137] | – | 1.74 | –
41 | CCOC(=O)C=Cc1cccc(N(Cc2ccc(C=CC(=O)OC(C)(C)C)cc2)C(=O)C2CCCCC2)c1 [Compound 133] | 256 nM | 2.07 | marked decline in potency
42 | COC(=O)C=Cc1cccc(N(Cc2ccc(C=CC(=O)OC(C)C)cc2)C(=O)C2CCCCC2)c1 [Compound 152] | – | 1.97 | –
43 | COC(=O)C=Cc1cccc(N(Cc2ccc(C=CC(=O)O)cc2)C(=O)C2CCCCC2)c1 [Compound 104] | – | 0.08 | –
44 | COc1c(CN(C(=O)C2CC2)c2ccccc2)ccc2c1OC(C)(C)C=C2 [Compound 26] | – | – | among the most active at this stage
45 | COC(=O)/C=C/c1ccc(N(Cc2ccc3c(c2OC)OC(C)(C)C=C3)C(=O)C2CC2)cc1 [Compound 53] | – | – | does not activate FXR
46 | COC(=O)/C=C/c1cccc(N(Cc2ccc(Br)cc2)C(=O)C2CCCCC2)c1 [Compound 112] | – | 0.28 | –
47 | COC(=O)C=Cc1cccc(N(Cc2ccc(C=CC(=O)NC(C)(C)C)cc2)C(=O)C2CCCCC2)c1 [Compound 155] | > 1000 nM | 1.65 | –
48 | COC(=O)/C=C/c1cccc(N(Cc2ccc3c(c2OC)OC(C)(C)C2C3C2(Cl)Cl)C(=O)c2ccccc2)c1 (stereo not drawn) [Compound 102] | – | 0.64 | –
49 | COC(=O)/C=C/c1cccc(N(Cc2ccccc2)Cc2ccc3c(c2OC)OC(C)(C)C=C3)c1 [Compound 78] | – | – | inactive
50 | COC(=O)/C=C/c1cccc(N(Cc2ccc(-c3ccccc3)cc2)C(=O)C2CCCCC2)c1 [Compound 124] | – | 0.71 | –
51 | COC(=O)/C=C/c1cccc(N(Cc2ccc3c(c2OC)OC(C)(C)C=C3)C(=S)NCc2ccccc2)c1 [Compound 84] | – | – | inactive
52 | COC(=O)/C=C/c1cccc(N(Cc2cccc(C(F)(F)F)c2)C(=O)C2CCCCC2)c1 [Compound 117] | – | 0.12 | –
53 | COC(=O)C=Cc1cccc(N(Cc2ccc(C=Cc3ccc(OC)cc3)cc2)C(=O)C2CCCCC2)c1 [Compound 122] | – | 1.67 | –
54 | COC(=O)/C=C/c1cccc(N(Cc2ccc(/C=C/C(=O)OC(C)(C)C)cc2)C(=O)c2ccccc2)c1 [Compound 143] | – | 1.96 | –
55 | COC(=O)/C=C/c1cccc(N(Cc2ccccc2)C(=O)C2CCCCC2)c1 [Compound 110] | – | 0.09 | –
